# Molecular target: TRPA1 (Rattus norvegicus, UniProt Q6RI86)
# Assay: TIRF Ca2+ imaging of TRPA1 sparklets in cerebral artery endothelial cells
# Format: cell-based
# TRPA1, sequence (Q6RI86 whole entry): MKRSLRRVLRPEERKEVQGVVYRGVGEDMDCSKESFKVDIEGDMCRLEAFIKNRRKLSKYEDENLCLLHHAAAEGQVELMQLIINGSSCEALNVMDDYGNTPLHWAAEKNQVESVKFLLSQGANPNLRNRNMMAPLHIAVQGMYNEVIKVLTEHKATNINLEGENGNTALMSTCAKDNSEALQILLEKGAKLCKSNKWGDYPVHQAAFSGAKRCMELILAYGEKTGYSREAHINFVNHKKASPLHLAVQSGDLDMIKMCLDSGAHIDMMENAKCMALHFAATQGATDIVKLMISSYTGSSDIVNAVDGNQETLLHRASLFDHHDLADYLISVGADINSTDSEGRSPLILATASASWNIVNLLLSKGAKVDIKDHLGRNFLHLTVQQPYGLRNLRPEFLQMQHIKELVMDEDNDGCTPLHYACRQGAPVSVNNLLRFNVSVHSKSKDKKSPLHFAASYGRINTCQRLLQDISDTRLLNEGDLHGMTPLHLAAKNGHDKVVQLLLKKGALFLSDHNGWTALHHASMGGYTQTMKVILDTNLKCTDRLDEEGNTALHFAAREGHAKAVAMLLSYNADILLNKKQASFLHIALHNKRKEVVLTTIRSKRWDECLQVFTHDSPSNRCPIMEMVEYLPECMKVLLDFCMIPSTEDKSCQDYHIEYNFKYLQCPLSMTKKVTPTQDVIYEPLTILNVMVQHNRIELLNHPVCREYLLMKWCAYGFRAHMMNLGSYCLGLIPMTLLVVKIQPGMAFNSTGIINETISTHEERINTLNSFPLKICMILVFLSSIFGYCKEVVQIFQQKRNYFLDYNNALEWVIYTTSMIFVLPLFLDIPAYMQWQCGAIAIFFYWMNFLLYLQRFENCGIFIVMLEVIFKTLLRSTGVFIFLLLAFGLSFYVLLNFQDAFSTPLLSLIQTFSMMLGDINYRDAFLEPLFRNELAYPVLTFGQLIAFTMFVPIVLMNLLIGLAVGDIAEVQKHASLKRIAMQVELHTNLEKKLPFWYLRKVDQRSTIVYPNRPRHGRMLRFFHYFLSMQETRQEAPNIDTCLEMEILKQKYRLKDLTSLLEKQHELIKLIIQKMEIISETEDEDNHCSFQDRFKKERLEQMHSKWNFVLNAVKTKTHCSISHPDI
smiles,measurement,value
CCCCCC(O)C=CC=O (stereo not shown) [4-HNE],EC50,64.8 ± 50.4 nM
